Results: US8586588B2, “Aryl pyridazinone derivatives and their use as H3 receptor ligands” (Cephalon, Inc., priority 2006, dated 2013)
Like-named read-outs stand apart in the source and are kept apart here.

Legend:
[1] = target: T1, rat histamine H3 receptor (Rattus norvegicus, UniProt Q9QYN8); test: Rat H3 radioligand binding ([3H]-N-alpha-methylhistamine, CHO-A3 cell membranes, SPA); conditions: binding constant as letter class
T1 construct: encoding the entire 445-amino-acid rat histamine H3 receptor; expressed in transfected cells
T1 sequence (Q9QYN8 whole entry): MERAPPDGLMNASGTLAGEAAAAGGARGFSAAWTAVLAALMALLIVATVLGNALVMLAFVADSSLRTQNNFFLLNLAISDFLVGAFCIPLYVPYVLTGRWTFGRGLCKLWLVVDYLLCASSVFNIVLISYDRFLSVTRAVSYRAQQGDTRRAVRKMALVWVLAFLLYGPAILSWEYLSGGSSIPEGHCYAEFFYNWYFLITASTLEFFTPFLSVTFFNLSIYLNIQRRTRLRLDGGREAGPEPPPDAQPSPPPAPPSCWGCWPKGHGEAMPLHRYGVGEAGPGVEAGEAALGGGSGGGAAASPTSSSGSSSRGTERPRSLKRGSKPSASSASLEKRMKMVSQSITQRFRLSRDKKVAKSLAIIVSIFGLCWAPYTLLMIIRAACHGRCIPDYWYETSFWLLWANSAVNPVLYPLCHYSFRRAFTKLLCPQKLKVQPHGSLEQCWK
Summary of the method: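 Scintillation proximity displacement of about 1 nM [3H]-N-alpha-methylhistamine, test compound 0.01 nM-30 μM, 4 h, room temperature, in the dark. Receptor source: rat H3 stably transfected into CHO-A3 cells, 10 μg membrane protein, Tris-HCl pH 7.4/MgCl2/BSA buffer. Nonspecific binding defined by 10 μM clobenpropit.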

[2] = target: T2, human H3 receptor (Homo sapiens, UniProt Q9Y5N1); test: Human H3 radioligand binding ([3H]-N-alpha-methylhistamine, CHO cell membranes, SPA); conditions: binding constant as letter class
T2 construct: expressed in transfected cells
T2 sequence (Q9Y5N1 whole entry): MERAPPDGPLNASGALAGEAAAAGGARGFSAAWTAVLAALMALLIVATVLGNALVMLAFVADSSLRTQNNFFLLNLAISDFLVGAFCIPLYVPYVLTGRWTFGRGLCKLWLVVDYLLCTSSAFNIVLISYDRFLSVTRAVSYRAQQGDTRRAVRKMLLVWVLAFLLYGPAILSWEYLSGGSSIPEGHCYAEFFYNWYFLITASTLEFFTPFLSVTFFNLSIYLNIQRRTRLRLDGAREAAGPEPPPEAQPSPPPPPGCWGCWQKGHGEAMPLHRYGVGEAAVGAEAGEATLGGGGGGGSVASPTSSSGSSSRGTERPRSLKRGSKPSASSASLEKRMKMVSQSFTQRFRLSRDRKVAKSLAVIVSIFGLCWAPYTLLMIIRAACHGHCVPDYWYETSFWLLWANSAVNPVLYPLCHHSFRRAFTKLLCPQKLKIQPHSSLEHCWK
Summary of the method: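 Scintillation proximity format: bead-proximal [3H]-N-alpha-methylhistamine (approximately 1 nM final) bound to human H3 receptor in CHO membranes was counted after 4 h at room temperature, light-protected. Buffer was pH 7.4 Tris/MgCl2/BSA; test compounds spanned 0.01 nM-30 μM; 10 μM clobenpropit set non-specific binding.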

Ki ([1]; Table B, read-out: rat H3 Ki) [µM] | Ki ([2]; Table B) [µM] | Ki ([1]; Table A, read-out: Rat H3 Ki) [µM] | Ki ([2]; Table A) [µM] | SMILES
0.0001 to 0.1 | 0.0001 to 0.1 |  |  | Cc1nn(-c2ccsc2)c(=O)cc1-c1ccc(OCCCN2CCC[C@H]2C)cc1 [Example 108, 6-Methyl-5-{4-[3-((R)-2-methyl-pyrrolidin-1-yl)-propoxy]-phenyl}-2-thiophen-3-yl-2H-pyridazin-3-one]
 |  | 0.0001 to 0.1 | 0.0001 to 0.1 | C[C@@H]1CCCN1CCCOc1ccc(-c2nn(Cc3ccc(Cl)cc3)c(=O)c3ccsc23)cc1 [Example 38, 5-(4-Chloro-benzyl)-7-{4-[3-((R)-2-methyl-pyrrolidin-1-yl)-propoxy]-phenyl}-5H-thieno[2,3-d]pyridazin-4-one]
 |  | 0.101 to 0.5 | 0.101 to 0.5 | CCCn1nc(-c2ccc(OCCCN3CCC(N(C)C)CC3)cc2)c2sccc2c1=O [Example 35, 7-{4-[3-(4-Dimethylamino-piperidin-1-yl)-propoxy]-phenyl}-5-propyl-5H-thieno[2,3-d]pyridazin-4-one]
 |  | 0.0001 to 0.1 | 0.0001 to 0.1 | C[C@@H]1CCCN1CCCOc1ccc(-c2nn(C)c(=O)c3c2CCC3)cc1 [Example 56, 2-Methyl-4-{4-[3-((R)-2-methyl-pyrrolidin-1-yl)-propoxy]-phenyl}-2,5,6,7-tetrahydro-cyclopenta[d]pyridazin-1-one]
 |  | 0.0001 to 0.1 | 0.0001 to 0.1 | CC(C)n1nc(-c2ccc(OCCCN3CCCCC3)cc2)c2sccc2c1=O [Example 24, 5-Isopropyl-7-[4-(3-piperidin-1-yl-propoxy)-phenyl]-5H-thieno[2,3-d]pyridazin-4-one]
0.0001 to 0.1 | 0.0001 to 0.1 |  |  | COCn1ncc(-c2ccc(OCCCN3CCC[C@H]3C)cc2)c(OC)c1=O [Example 235, 4-Methoxy-2-methoxymethyl-5-{4-[3-((R)-2-methyl-pyrrolidin-1-yl)-propoxy]-phenyl}-2H-pyridazin-3-one]
 |  | 0.101 to 0.5 | 0.0001 to 0.1 | Cn1nc(-c2ccc(OCCCN3CCCCC3)cc2)ccc1=O [Example 2, 2-Methyl-6-[4-(3-piperidin-1-yl-propoxy)-phenyl]-2H-pyridazin-3-one]
 |  | 0.101 to 0.5 | 0.0001 to 0.1 | Cn1nc(-c2ccc(OCCCN3CCCCC3)cc2)cc(Cc2ccccc2)c1=O [Example 46, 4-Benzyl-2-methyl-6-[4-(3-piperidin-1-yl-propoxy)-phenyl]-2H-pyridazin-3-one]
 |  | 0.0001 to 0.1 | 0.0001 to 0.1 | Cn1nc(-c2ccc(OCCCN3CCCCC3)cc2)c2c(c1=O)CCCC2 [Example 61]
0.0001 to 0.1 | 0.0001 to 0.1 |  |  | Cc1nn(C)c(=O)cc1-c1ccc(OCCCN2CCCCC2)cc1 [Example 87, 2,6-Dimethyl-5-[4-(3-piperidin-1-yl-propoxy)-phenyl]-2H-pyridazin-3-one]
0.0001 to 0.1 | 0.0001 to 0.1 |  |  | C[C@@H]1CCCN1CCCOc1ccc(-c2cnn(C)c(=O)c2)cc1 [Example 91, 2-Methyl-5-{4-[3-((R)-2-methyl-pyrrolidin-1-yl)-propoxy]-phenyl}-2H-pyridazin-3-one]
 |  | 0.0001 to 0.1 | 0.0001 to 0.1 | CCn1nc(-c2ccc(OCCCN3CCC[C@H]3C)cc2)ccc1=O [Example 6, 2-Ethyl-6-{4-[3-((R)-2-methyl-pyrrolidin-1-yl)-propoxy]-phenyl}-2H-pyridazin-3-one]
 |  | 0.0001 to 0.1 | 0.0001 to 0.1 | CCCn1nc(-c2ccc(OCCCN3CCC[C@H]3C)cc2)c2sccc2c1=O [Example 32, 7-{4-[3-((R)-2-Methyl-pyrrolidin-1-yl)-propoxy]phenyl}-5-propyl-5H-thieno[2,3-d]pyridazin-4-one]

The next lines start with the molecule.

SMILES | Ki ([1]; Table B, read-out: rat H3 Ki) [µM] | Ki ([2]; Table B) [µM] | Ki ([1]; Table A, read-out: Rat H3 Ki) [µM] | Ki ([2]; Table A) [µM]
C[C@@H]1CCCN1CCCOc1cccc(-c2nn(C)c(=O)c3c2CCC3)c1 [Example 125, 2-Methyl-4-{3-[3-((R)-2-methyl-pyrrolidin-1-yl)-propoxy]-phenyl}-2,5,6,7-tetrahydro-cyclopenta[d]pyridazin-1-one] | 0.501 to 1 | 0.101 to 0.5 |  | 
C[C@@H]1CCCN1CCCOc1ccc(C2=NNC(=O)C3CC23)cc1 (single isomer, unassigned) [Example 246] | 0.0001 to 0.1 | 0.0001 to 0.1 |  | 
C[C@H](COc1ccc(-c2ccc(=O)n(C)n2)cc1)CN1CCC[C@H]1C [Example 13, 2-Methyl-6-{4-[(S)-2-methyl-3-((R)-2-methyl-pyrrolidin-1-yl)-propoxy]-phenyl}-2H-pyridazin-3-one] |  |  | 0.0001 to 0.1 | 0.0001 to 0.1
CC(C)n1ncc(-c2ccc(OCCCN3CCC[C@H]3C)cc2)cc1=O [Example 128, 2-Isopropyl-5-{4-[3-((R)-2-methyl-pyrrolidin-1-yl)-propoxy]-phenyl}-2H-pyridazin-3-one] | 0.0001 to 0.1 | 0.0001 to 0.1 |  | 
CC1CC(=O)NN=C1c1ccc(OCCCN2CCC[C@H]2C)cc1 (mixture of isomers) [Example 194, 5-Methyl-6-{4-[3-((R)-2-methyl-pyrrolidin-1-yl)-propoxy]-phenyl}-4,5-dihydro-2H-pyridazin-3-one] | 0.0001 to 0.1 | 0.0001 to 0.1 |  | 
O=c1ccc(-c2ccc(OCCCN3CCOCC3)cc2)n[nH]1 [Example 238, 6-[4-(3-Morpholin-4-yl-propoxy)-phenyl]-2H-pyridazin-3-one] | > 1 | > 1 |  | 
O=c1cc(-c2ccc(OC3CCNCC3)cc2)cn[nH]1 [Example 105, 5-[4-(Piperidin-4-yloxy)-phenyl]-2H-pyridazin-3-one] | > 1 | > 1 |  | 
Cc1cccnc1-n1ncc(-c2ccc(OCCCN3CCC[C@H]3C)cc2)cc1=O [Example 99, 2-(3-Methyl-pyridin-2-yl)-5-{4-[3-((R)-2-methylpyrrolidin-1-yl)-propoxy]-phenyl}-2H-pyridazin-3-one] | 0.0001 to 0.1 | 0.0001 to 0.1 |  | 
C[C@@H]1CCCN1CCCOc1ccc2c(c1)CCC1CC(=O)NN=C21 (stereo partly drawn) [Example 212, 8-[3-(2-Methyl-pyrrolidin-1-yl)-propoxy]-4,4a,5,6-tetrahydro-2H-benzo[h]cinnolin-3-one] | 0.0001 to 0.1 | 0.0001 to 0.1 |  | 
O=C1NN=C(c2ccc(OC3CCN(C4CCCC4)CC3)cc2)C2CC12 (stereo not drawn) [Example 261, 5-[4-(1-Cyclopentyl-piperidin-4-yloxy)-phenyl]-3,4-diaza-bicyclo[4.1.0]hept-4-en-2-one] | 0.0001 to 0.1 | 0.0001 to 0.1 |  | 
Cc1nn(-c2ccccn2)c(=O)cc1-c1ccc(OC2CCN(C3CCC3)CC2)cc1 [Example 104, 5-[4-(1-Cyclobutyl-piperidin-4-yloxy)-phenyl]-6-methyl-2-pyridin-2-yl-2H-pyridazin-3-one] | 0.0001 to 0.1 | 0.0001 to 0.1 |  | 
O=c1cc(-c2ccc(OC3CCN(C4CCC4)CC3)cc2)cn[nH]1 [Example 106, 5-[4-(1-Cyclobutyl-piperidin-4-yloxy)-phenyl]-2H-pyridazin-3-one] | 0.0001 to 0.1 | 0.0001 to 0.1 |  | 
O=c1ccc(-c2ccc(OCCCN3CCCCC3)c(F)c2)nn1-c1ccccc1 [Example 10, 6-[3-Fluoro-4-(3-piperidin-1-yl-propoxy)-phenyl]-2-phenyl-2H-pyridazin-3-one] |  |  | 0.101 to 0.5 | 0.0001 to 0.1
C[C@@H]1CCCN1CCCOc1ccc(C2=NNC(=O)CC2c2ccccn2)cc1 (stereo partly drawn) [Example 111, 6-{4-[3-((R)-2-Methyl-pyrrolidin-1-yl)-propoxy]-phenyl}-5-pyridin-2-yl-4,5-dihydro-2H-pyridazin-3-one] | 0.0001 to 0.1 | 0.0001 to 0.1 |  | 
Cn1nc(-c2ccc(OC3CCN(C4CCC4)CC3)cc2)ccc1=O [Example 74] |  |  | 0.0001 to 0.1 | 0.0001 to 0.1
Cc1cc(-c2ccc(OCCCN3CCC[C@H]3C)cc2)nn(Cc2ccccc2)c1=O [Example 43, 2-Benzyl-4-methyl-6-{4-[3-((R)-2-methyl-pyrrolidin-1-yl)-propoxy]-phenyl}-2H-pyridazin-3-one] |  |  | 0.0001 to 0.1 | 0.0001 to 0.1
O=c1ccc(-c2ccccc2)nn1-c1ccc(OC2CCN(C3CCC3)CC2)nc1 [Example 203, 2-[6-(1-Cyclobutyl-piperidin-4-yloxy)-pyridin-3-yl]-6-phenyl-2H-pyridazin-3-one] | 0.0001 to 0.1 | 0.0001 to 0.1 |  | 
C[C@@H]1CCCN1CCCOc1ccc(-c2ccc(=O)n(-c3cc(Cl)cc(Cl)c3)n2)cc1 [Example 9, 2-(3,5-Dichloro-phenyl)-6-{4-[3-((R)-2-methyl-pyrrolidin-1-yl)-propoxy]-phenyl}-2H-pyridazin-3-one] |  |  | 0.0001 to 0.1 | 0.0001 to 0.1
Cn1nc(-c2ccc(OC3CCNCC3)cc2)ccc1=O [Example 73] |  |  | > 1 | 0.501 to 1
C[C@@H]1CCCN1CCCOc1ccc(-c2ccc(=O)n(-c3ncccn3)n2)cc1 [Example 138, 6-{4-[3-((R)-2-Methyl-pyrrolidin-1-yl)-propoxy]-phenyl}-2-pyrimidin-2-yl-2H-pyridazin-3-one] | 0.0001 to 0.1 | 0.0001 to 0.1 |  | 
C[C@@H]1CCCN1CCCOc1ccc(C2=NN(C)C(=O)CC2)cc1 [Example 16, 2-Methyl-6-{4-[3-((R)-2-methyl-pyrrolidin-1-yl)-propoxy]-phenyl}-4,5-dihydro-2H-pyridazin-3-one] |  |  | 0.0001 to 0.1 | 0.0001 to 0.1
C[C@@H]1CCCN1CCCOc1ccc(-c2cc(-c3ccccn3)c(=O)[nH]n2)cc1 [Example 217, 6-{4-[3-((R)-2-Methyl-pyrrolidin-1-yl)-propoxy]-phenyl}-4-pyridin-2-yl-2H-pyridazin-3-one] | 0.0001 to 0.1 | 0.0001 to 0.1 |  | 
C[C@@H]1CCCN1CCCOc1ccc(-n2nc(C3CC3)ccc2=O)cc1 [Example 262, 6-Cyclopropyl-2-{4-[3-((R)-2-methyl-pyrrolidin-1-yl)-propoxy]-phenyl}-2H-pyridazin-3-one] | 0.101 to 0.5 | 0.0001 to 0.1 |  | 
